Test results taken from the supplement of paper PMC5662764.
± gives the standard deviation of the averaged measurements.

Assays:
Assay in all cases: normalised growth rate inhibition (GR value) relative to DMSO control (GR (1 = untreated growth, 0 = cytostasis, <0 = cytotoxic)); higher = less growth inhibition
Settings in all cases: 72 h
[1] = test system: MDAMB231
Procedure: (§1)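 Breast cancer cell lines (BT-20, Hs 578T, MCF 10A, MCF7, MDA-MB-231, SK-BR-3) were plated in 384-well plates and treated 24 h later with drugs at six concentrations (0.04-10 µM). Viable cells were counted by Hoechst/dead-cell-stain imaging at 0 and 72 h. Counts were normalised to DMSO controls on the same plate to give the relative cell count and the growth-rate inhibition (GR) value; technical plate triplicates were averaged for each biological replicate.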

[2] = test system: BT20
Procedure: as §1

[3] = test system: MCF7
Procedure: as §1

[4] = test system: HS578T
Procedure: as §1

[5] = test system: MCF10A
Procedure: as §1

[6] = test system: SKBR3
Procedure: as §1

SMILES: Nc1ccc(-c2ccc3ncc4ccc(=O)n(-c5cccc(C(F)(F)F)c5)c4c3c2)cn1 [torin-2]
- normalised growth rate inhibition ([1]; 0.04 µM): 0.225 ± 0.084
- normalised growth rate inhibition ([1]; 0.12 µM): 0.135 ± 0.11
- normalised growth rate inhibition ([1]; 0.37 µM): 0.0529 ± 0.1
- normalised growth rate inhibition ([1]; 1.11 µM): 0.0249 ± 0.13
- normalised growth rate inhibition ([1]; 3.33 µM): -0.112 ± 0.36
- normalised growth rate inhibition ([1]; 10 µM): -0.199 ± 0.18
- normalised growth rate inhibition ([2]; 0.04 µM): -0.0219 ± 0.046
- normalised growth rate inhibition ([2]; 0.12 µM): -0.0695 ± 0.021
- normalised growth rate inhibition ([2]; 0.37 µM): -0.128 ± 0.077
- normalised growth rate inhibition ([2]; 1.11 µM): -0.218 ± 0.081
- normalised growth rate inhibition ([2]; 3.33 µM): -0.287 ± 0.077
- normalised growth rate inhibition ([2]; 10 µM): -0.251 ± 0.1
- normalised growth rate inhibition ([3]; 0.04 µM): -0.0044 ± 0.038
- normalised growth rate inhibition ([3]; 0.12 µM): -0.0152 ± 0.09
- normalised growth rate inhibition ([3]; 0.37 µM): -0.0495 ± 0.065
- normalised growth rate inhibition ([3]; 1.11 µM): -0.0476 ± 0.037
- normalised growth rate inhibition ([3]; 3.33 µM): -0.0446 ± 0.024
- normalised growth rate inhibition ([3]; 10 µM): -0.111 ± 0.026
- normalised growth rate inhibition ([4]; 0.04 µM): 0.192 ± 0.058
- normalised growth rate inhibition ([4]; 0.12 µM): 0.0992 ± 0.089
- normalised growth rate inhibition ([4]; 0.37 µM): -0.0345 ± 0.13
- normalised growth rate inhibition ([4]; 1.11 µM): -0.0453 ± 0.13
- normalised growth rate inhibition ([4]; 3.33 µM): -0.0773 ± 0.12
- normalised growth rate inhibition ([4]; 10 µM): -0.135 ± 0.14
- normalised growth rate inhibition ([5]; 0.04 µM): 0.169 ± 0.23
- normalised growth rate inhibition ([5]; 0.12 µM): 0.111 ± 0.1
- normalised growth rate inhibition ([5]; 0.37 µM): 0.0505 ± 0.063
- normalised growth rate inhibition ([5]; 1.11 µM): 0.0367 ± 0.05
- normalised growth rate inhibition ([5]; 3.33 µM): 0.0667 ± 0.053
- normalised growth rate inhibition ([5]; 10 µM): 0.0215 ± 0.048
- normalised growth rate inhibition ([6]; 0.04 µM): -0.135 ± 0.11
- normalised growth rate inhibition ([6]; 0.12 µM): -0.132 ± 0.11
- normalised growth rate inhibition ([6]; 0.37 µM): -0.158 ± 0.11
- normalised growth rate inhibition ([6]; 1.11 µM): -0.168 ± 0.13
- normalised growth rate inhibition ([6]; 3.33 µM): -0.21 ± 0.077
- normalised growth rate inhibition ([6]; 10 µM): -0.286 ± 0.19

SMILES: Cc1cc2c(F)c(Oc3ncnn4cc(OC[C@@H](C)O)c(C)c34)ccc2[nH]1 [brivanib]
- normalised growth rate inhibition ([1]; 0.04 µM): 0.902 ± 0.11
- normalised growth rate inhibition ([1]; 0.12 µM): 0.892 ± 0.081
- normalised growth rate inhibition ([1]; 0.37 µM): 0.91 ± 0.062
- normalised growth rate inhibition ([1]; 1.11 µM): 0.923 ± 0.062
- normalised growth rate inhibition ([1]; 3.33 µM): 0.895 ± 0.1
- normalised growth rate inhibition ([1]; 10 µM): 0.667 ± 0.094
- normalised growth rate inhibition ([2]; 0.04 µM): 0.949 ± 0.039
- normalised growth rate inhibition ([2]; 0.12 µM): 0.935 ± 0.016
- normalised growth rate inhibition ([2]; 0.37 µM): 0.956 ± 0.012
- normalised growth rate inhibition ([2]; 1.11 µM): 0.928 ± 0.024
- normalised growth rate inhibition ([2]; 3.33 µM): 0.925 ± 0.047
- normalised growth rate inhibition ([2]; 10 µM): 0.798 ± 0.03
- normalised growth rate inhibition ([3]; 0.04 µM): 0.902 ± 0.093
- normalised growth rate inhibition ([3]; 0.12 µM): 0.864 ± 0.064
- normalised growth rate inhibition ([3]; 0.37 µM): 0.898 ± 0.079
- normalised growth rate inhibition ([3]; 1.11 µM): 0.908 ± 0.062
- normalised growth rate inhibition ([3]; 3.33 µM): 0.949 ± 0.029
- normalised growth rate inhibition ([3]; 10 µM): 0.86 ± 0.035
- normalised growth rate inhibition ([4]; 0.04 µM): 0.963 ± 0.016
- normalised growth rate inhibition ([4]; 0.12 µM): 0.952 ± 0.02
- normalised growth rate inhibition ([4]; 0.37 µM): 0.963 ± 0.011
- normalised growth rate inhibition ([4]; 1.11 µM): 0.9364 ± 0.0061
- normalised growth rate inhibition ([4]; 3.33 µM): 0.9281 ± 0.0053
- normalised growth rate inhibition ([4]; 10 µM): 0.797 ± 0.055
- normalised growth rate inhibition ([5]; 0.04 µM): 0.992 ± 0.017
- normalised growth rate inhibition ([5]; 0.12 µM): 0.977 ± 0.023
- normalised growth rate inhibition ([5]; 0.37 µM): 0.969 ± 0.016
- normalised growth rate inhibition ([5]; 1.11 µM): 0.883 ± 0.043
- normalised growth rate inhibition ([5]; 3.33 µM): 0.74 ± 0.071
- normalised growth rate inhibition ([5]; 10 µM): 0.316 ± 0.043
- normalised growth rate inhibition ([6]; 0.04 µM): 0.811 ± 0.14
- normalised growth rate inhibition ([6]; 0.12 µM): 0.798 ± 0.17
- normalised growth rate inhibition ([6]; 0.37 µM): 0.807 ± 0.15
- normalised growth rate inhibition ([6]; 1.11 µM): 0.861 ± 0.11
- normalised growth rate inhibition ([6]; 3.33 µM): 0.85 ± 0.11
- normalised growth rate inhibition ([6]; 10 µM): 0.822 ± 0.1

SMILES: CN(C)C/C=C/C(=O)Nc1cc2c(Nc3ccc(F)c(Cl)c3)ncnc2cc1O[C@H]1CCOC1 [afatinib]
- normalised growth rate inhibition ([1]; 0.04 µM): 0.845 ± 0.14
- normalised growth rate inhibition ([1]; 0.12 µM): 0.873 ± 0.047
- normalised growth rate inhibition ([1]; 0.37 µM): 0.755 ± 0.041
- normalised growth rate inhibition ([1]; 1.11 µM): 0.641 ± 0.09
- normalised growth rate inhibition ([1]; 3.33 µM): 0.537 ± 0.043
- normalised growth rate inhibition ([1]; 10 µM): -0.205 ± 0.11
- normalised growth rate inhibition ([2]; 0.04 µM): 0.704 ± 0.031
- normalised growth rate inhibition ([2]; 0.12 µM): 0.789 ± 0.017
- normalised growth rate inhibition ([2]; 0.37 µM): 0.814 ± 0.027
- normalised growth rate inhibition ([2]; 1.11 µM): 0.868 ± 0.059
- normalised growth rate inhibition ([2]; 3.33 µM): 0.855 ± 0.035
- normalised growth rate inhibition ([2]; 10 µM): 0.0471 ± 0.25
- normalised growth rate inhibition ([3]; 0.04 µM): 0.784 ± 0.14
- normalised growth rate inhibition ([3]; 0.12 µM): 0.81 ± 0.15
- normalised growth rate inhibition ([3]; 0.37 µM): 0.865 ± 0.079
- normalised growth rate inhibition ([3]; 1.11 µM): 0.736 ± 0.11
- normalised growth rate inhibition ([3]; 3.33 µM): 0.603 ± 0.15
- normalised growth rate inhibition ([3]; 10 µM): -0.239 ± 0.083
- normalised growth rate inhibition ([4]; 0.04 µM): 0.9498 ± 0.0056
- normalised growth rate inhibition ([4]; 0.12 µM): 0.944 ± 0.032
- normalised growth rate inhibition ([4]; 0.37 µM): 0.944 ± 0.021
- normalised growth rate inhibition ([4]; 1.11 µM): 0.899 ± 0.025
- normalised growth rate inhibition ([4]; 3.33 µM): 0.852 ± 0.059
- normalised growth rate inhibition ([4]; 10 µM): -0.152 ± 0.04
- normalised growth rate inhibition ([5]; 0.04 µM): 0.034 ± 0.14
- normalised growth rate inhibition ([5]; 0.12 µM): 0.0299 ± 0.097
- normalised growth rate inhibition ([5]; 0.37 µM): 0.034 ± 0.07
- normalised growth rate inhibition ([5]; 1.11 µM): 0.0532 ± 0.05
- normalised growth rate inhibition ([5]; 3.33 µM): 0.058 ± 0.067
- normalised growth rate inhibition ([5]; 10 µM): 0.0354 ± 0.032
- normalised growth rate inhibition ([6]; 0.04 µM): -0.137 ± 0.2
- normalised growth rate inhibition ([6]; 0.12 µM): -0.13 ± 0.17
- normalised growth rate inhibition ([6]; 0.37 µM): -0.117 ± 0.16
- normalised growth rate inhibition ([6]; 1.11 µM): -0.0678 ± 0.2
- normalised growth rate inhibition ([6]; 3.33 µM): -0.0514 ± 0.15
- normalised growth rate inhibition ([6]; 10 µM): -0.171 ± 0.11

SMILES: CNC(=O)c1ccc(Nc2cc(Nc3ccccc3S(=O)(=O)C(C)C)c3cc[nH]c3n2)nc1 [HG-5-113-01]
- normalised growth rate inhibition ([1]; 0.04 µM): 0.969 ± 0.058
- normalised growth rate inhibition ([1]; 0.12 µM): 0.888 ± 0.068
- normalised growth rate inhibition ([1]; 0.37 µM): 0.705 ± 0.12
- normalised growth rate inhibition ([1]; 1.11 µM): 0.35 ± 0.19
- normalised growth rate inhibition ([1]; 3.33 µM): 0.123 ± 0.089
- normalised growth rate inhibition ([1]; 10 µM): -0.0611 ± 0.15
- normalised growth rate inhibition ([2]; 0.04 µM): 0.953 ± 0.041
- normalised growth rate inhibition ([2]; 0.12 µM): 0.8835 ± 0.0077
- normalised growth rate inhibition ([2]; 0.37 µM): 0.785 ± 0.069
- normalised growth rate inhibition ([2]; 1.11 µM): 0.601 ± 0.057
- normalised growth rate inhibition ([2]; 3.33 µM): 0.295 ± 0.051
- normalised growth rate inhibition ([2]; 10 µM): -0.158 ± 0.11
- normalised growth rate inhibition ([3]; 0.04 µM): 0.866 ± 0.069
- normalised growth rate inhibition ([3]; 0.12 µM): 0.718 ± 0.18
- normalised growth rate inhibition ([3]; 0.37 µM): 0.399 ± 0.21
- normalised growth rate inhibition ([3]; 1.11 µM): 0.163 ± 0.11
- normalised growth rate inhibition ([3]; 3.33 µM): 0.064 ± 0.018
- normalised growth rate inhibition ([3]; 10 µM): -0.222 ± 0.1
- normalised growth rate inhibition ([4]; 0.04 µM): 0.9393 ± 0.0065
- normalised growth rate inhibition ([4]; 0.12 µM): 0.9 ± 0.013
- normalised growth rate inhibition ([4]; 0.37 µM): 0.77 ± 0.043
- normalised growth rate inhibition ([4]; 1.11 µM): 0.443 ± 0.17
- normalised growth rate inhibition ([4]; 3.33 µM): 0.109 ± 0.13
- normalised growth rate inhibition ([4]; 10 µM): -0.0329 ± 0.066
- normalised growth rate inhibition ([5]; 0.04 µM): 0.968 ± 0.013
- normalised growth rate inhibition ([5]; 0.12 µM): 0.92 ± 0.036
- normalised growth rate inhibition ([5]; 0.37 µM): 0.851 ± 0.034
- normalised growth rate inhibition ([5]; 1.11 µM): 0.713 ± 0.031
- normalised growth rate inhibition ([5]; 3.33 µM): 0.312 ± 0.16
- normalised growth rate inhibition ([5]; 10 µM): -0.0419 ± 0.062
- normalised growth rate inhibition ([6]; 0.04 µM): 0.875 ± 0.062
- normalised growth rate inhibition ([6]; 0.12 µM): 0.798 ± 0.16
- normalised growth rate inhibition ([6]; 0.37 µM): 0.514 ± 0.3
- normalised growth rate inhibition ([6]; 1.11 µM): 0.0629 ± 0.15
- normalised growth rate inhibition ([6]; 3.33 µM): -0.121 ± 0.069
- normalised growth rate inhibition ([6]; 10 µM): -0.148 ± 0.12
